Results as given in patent US20180021395A1, “EUCOMMIA LEAF EXTRACT, AND PREPARATION METHOD AND USE THEREOF” (SICHUAN JIUZHANG BIOLOGICAL SCIENCE AND TECHNOLOGY CO., LTD, priority 2015, published 2018).
Marks after values point to notes of the source that are not given here.

Legend:
cAMP and cGMP in serum = experiment: Psoriasis vulgaris model: content and ratio of cAMP and cGMP in serum (ELISA); format: in vivo, SCID mice; conditions: x ± s, n = 10
Text: (§1) Female and male SCID mice were separately fed for one week, and allowed to adapt growing environment. Patients with psoriasis vulgaris or plaque-type psoriasis were chosen (indentifying the informed consent). Dermatochalasis containing 2 cm×2 cm psoriasis skin damage in patients was chosen to make a fusiform incision, and full-thickness of skin was cut and trimmed into free skin graft with a suitable thickness of 0.6 cm×0.6 cm. Aseptic packaging was wrapped up with bandage macerated with normal saline, to prepare for transplantation. According to the body weight of SCID mice, 3% chloral hydrate (0.1 ml/10 g) was administrated, followed by skin preparation and unhair. Epidermis was scissored and cut into fascia layer, and the trimmed skin graft was sutured using 3-0 silk thread and subjected to pressure dressing with cotton ball soaking with normal saline. After transplantation of skin, mice were raised in separated cages, and all processes were finished within 2 h. After 10 days, skin damage arounding was injected with PBMC (1×10^6/mouse) provided by transplantation supplier and treated with ConA. After two weeks, exterior packing was dismantled to observe the survival situation of skin and confirm the success of model establishment, and the successful model was used for further experiment.
The administration was kept for 10 days.
Before sacrificing guinea pigs, blood was taken and centrifuged under 2000r/rain, to collect serum. Using ELISA kit, optical density was detected as instructions in kit. The results were calculated by standard curve, and the ratio of cAMP/cGMP was calculated according to the results.
All values were processed using SPSS13.0 software, and the experimental results were presented as x±s. p<0.05 was considered to be a statistical difference. The mean of multi-samples was compared using analysis of variance.

VEGF = experiment: Psoriasis vulgaris model: VEGF levels in serum; format: in vivo, SCID mice; conditions: after 10 days administration, x ± s, n = 10
Text: as §1, with “After two weeks, exterior packing was dismantled to observe the survival situation of skin and confirm the success of model establishment, and the successful model was used for further experiment.” left out
Before sacrificing guinea pigs, blood was taken and centrifuged under 2000r/rain, to collect serum. Using ELISA kit, optical density was detected as instructions in kit. The results were calculated by standard curve, and the ratio of cAMP/cGMP was calculated according to the results. […]

[1] = test system: psoriasis vulgaris model (transplanted psoriasis skin damage); experiment: Psoriasis vulgaris model: SCID mice transplanted with patient psoriasis skin, HE histology and Baker scores; format: in vivo
Description: Female and male SCID mice were separately fed for one week, and allowed to adapt growing environment. Patients with psoriasis vulgaris or plaque-type psoriasis were chosen (indentifying the informed consent). […] Aseptic packaging was wrapped up with bandage macerated with normal saline, to prepare for transplantation. According to the body weight of SCID mice, 3% chloral hydrate (0.1 ml/10 g) was administrated, followed by skin preparation and unhair. […] After transplantation of skin, mice were raised in separated cages, and all processes were finished within 2 h. After 10 days, skin damage arounding was injected with PBMC (1×10^6/mouse) provided by transplantation supplier and treated with ConA. After two weeks, exterior packing was dismantled to observe the survival situation of skin and confirm the success of model establishment, and the successful model was used for further experiment. […] The administration was kept for 10 days. […] Skin damage was trimmed into suitable size, dehydrated, embedded, sliced, and stained with HE. […] Baker scores were calculated, and the difference in data of each group was compared. All values were processed using SPSS13.0 software, and the experimental results were presented as x±s. p<0.05 was considered to be a statistical difference. The mean of multi-samples was compared using analysis of variance.

[2] = serum, ELISA, after 10 days administration
[3] = transplanted skin, HE stain, after 10 days administration

For `COc1cc(C)c(/C=C/C(C)=C/C=C/C(C)=C/C(=O)O)c(C)c1C` [Positive control, Acitretin A capsule], the cAMP/cGMP (cAMP and cGMP in serum; ratio of serum contents) was 3.02 ± 0.08^ab, the cAMP in serum (cAMP and cGMP in serum; [2]) was 10.22 ± 0.73^ab pmol/m1 and the cGMP in serum (cAMP and cGMP in serum; [2]) was 3.38 ± 0.20^ab pmol/m1. The “VEGF levels in serum” value (VEGF) was 93.40 ± 6.54^ab pg/m1, the Number of acanthocytes ([1]; 10 days administration, x ± s, n = 10) was 27.09 ± 8.83^a and the “Monocytes (count)” value ([1]; surrounding superficial layer blood vessels in dermis, 200 times visual fields, 10 days administration, x ± s, n = 10) was 66.40 ± 9.28^a. For the same compound, the Baker scores ([1]; test drugs 100 mg/kg intragastric once a day, positive control 2.25 mg/kg twice a day, 10 days, x ± s, n = 10) was 6.39 ± 1.53^a, the “degree of parakeratosis under light microscope” value [1, 3] was “middle degree of parakeratosis” and the “epidermis wooden stick-like hyperplasia” value [1, 3] was “middle degree of wooden stick-like hyperplasia”. For the same compound, the “monocyte infiltration surrounding blood vessels in dermis” value [1, 3] was “small amounts of monocyte infiltration”, the punctiform granular layer [1, 3] was “local visible punctiform granular layer and hyperkeratinization” and the spinous layer thickness [1, 3] was 24-32 layers.
